According to ChEMBL document CHEMBL5506000, “Design, synthesis and antibacterial evaluation of low toxicity amphiphilic-cephalosporin derivatives” (Eur J Med Chem, 2024):
Calls of active or inactive are those of the source. The calls are words filed in the database; no cut-off is given here.

What was measured:
Staphylococcus aureus [1] = experiment: Antibacterial activity against Staphylococcus aureus measured after 3 to 6 hrs in presence of 50% plasma; assay type: functional, organism-based; details: time 3-6 hrs
Staphylococcus aureus [2] = experiment: Post-antibiotic effect against Staphylococcus aureus at 1 times of MIC incubated for 1 hrs; assay type: functional
Staphylococcus aureus [3] = experiment: Antibacterial activity against Staphylococcus aureus ATCC 29213 by CLSI protocol based assay; assay type: functional
Staphylococcus aureus [4] = experiment: Antibacterial activity against Staphylococcus aureus assessed as reduction in metabolic activity at sub-MIC; assay type: functional, organism-based
Escherichia coli [5] = experiment: Induction of morphological changes in Escherichia coli assessed as cell elongation at 8 times of MIC incubated for 6 hrs by scanning electron microscopic analysis; assay type: functional, organism-based
[6] = Cytotoxicity against rat HBZY-1 cells assessed as reduction in cell viability by CCK-8 assay; assay type: toxicity, cell-based
[7] = Hemolytic activity in sheep RBC; assay type: toxicity, cell-based, Ovis aries, Erythrocyte; details: sheep red blood cells (erythrocytes)
Staphylococcus aureus [8] = experiment: Resistance development in 20 day passaged Staphylococcus aureus assessed as cefotaxime antibacterial activity; assay type: functional, organism-based
[9] = Hemolytic activity in sheep RBC assessed as hemolysis rate at 1280 microg/ml relative to control; assay type: toxicity, cell-based, Ovis aries, Erythrocyte; details: sheep red blood cells (erythrocytes), dose 1280 µg/ml, read-out: Activity
Cell membrane [10] = experiment: Induction of cell membrane damage in Staphylococcus aureus assessed as nucleic acid leakage at 8 to 32 microg/ml by absorbance based analysis; assay type: cell membranes; details: dose 8-32 µg/ml
[11] = Cytotoxicity against HUVEC assessed as viable cells at 128 microg/ml incubated for 48 hrs by CCK-8 assay relative to control; assay type: toxicity, cell-based; details: human, at 128 µg/mL, read-out: Activity
Cell membrane [12] = experiment: Induction of inner membrane permeabilization in Staphylococcus aureus assessed as increase in fluorescence intensity at 16 microg/ml by PI staining based analysis; assay type: cell membranes; details: dose 16.0 µg/ml
Enterococcus faecalis = experiment: Antibacterial activity against Enterococcus faecalis ATCC 29212 by CLSI protocol based assay; assay type: functional
Staphylococcus aureus [13] = experiment: Antibacterial activity against methicillin resistant Staphylococcus aureus clinical isolates; assay type: functional
Staphylococcus aureus [14] = experiment: Resistance development in 20 day passaged Staphylococcus aureus assessed as ciprofloxacin antibacterial activity; assay type: functional, organism-based
Staphylococcus aureus [15] = experiment: Resistance development in 20 day passaged Staphylococcus aureus assessed as beta-lactam antibacterial activity; assay type: functional, organism-based
[16] = tested on: Stenotrophomonas maltophilia; experiment: Antibacterial activity against Stenotrophomonas maltophilia ATCC 17808 by CLSI protocol based assay; assay type: functional
[17] = Cytotoxicity against rat HBZY-1 cells assessed as viable cells at 128 microg/ml incubated for 48 hrs by CCK-8 assay relative to control; assay type: toxicity, cell-based; details: at 128 µg/mL, read-out: Activity
Staphylococcus aureus [18] = experiment: Antibacterial activity against methicillin resistant Staphylococcus aureus clinical isolates assessed as 50% inhibition of bacterial growth; assay type: functional
Staphylococcus aureus [19] = experiment: Resistance development in 20 day passaged Staphylococcus aureus assessed as ampicillin antibacterial activity; assay type: functional, organism-based
Staphylococcus aureus [20] = experiment: Antibacterial activity against Staphylococcus aureus assessed as inhibition of metabolic activity at MIC; assay type: functional
Staphylococcus aureus [21] = experiment: Drug resistance, ratio of MIC for Staphylococcus aureus measured within 20 days to MIC for Staphylococcus aureus; assay type: functional
Cell membrane [22] = experiment: Induction of cell membrane damage in Staphylococcus aureus assessed as protein leakage at 8 to 32 microg/ml; assay type: cell membranes; details: dose 8-32 µg/ml
Staphylococcus aureus [23] = experiment: Resistance development in 20 day passaged Staphylococcus aureus assessed as levofloxacin antibacterial activity; assay type: functional, organism-based
Escherichia coli [24] = experiment: Antibacterial activity against Escherichia coli ATCC 25922 by CLSI protocol based assay; assay type: functional
[25] = Cytotoxicity against HUVEC assessed as reduction in cell viability by CCK-8 assay; assay type: toxicity, cell-based; details: human, HUVEC cells
Staphylococcus aureus [26] = experiment: Antibacterial activity against Staphylococcus aureus in presence of 50% serum; assay type: functional
Staphylococcus aureus [27] = experiment: Post-antibiotic effect against Staphylococcus aureus at 4 times of MIC incubated for 1 hrs; assay type: functional
Cell membrane [28] = experiment: Induction of cell membrane depolarization in Staphylococcus aureus assessed as increase in fluorescence intensity at 16 microg/ml by DiSC3(5) dye based assay; assay type: cell membranes; details: dose 16.0 µg/ml
Staphylococcus aureus [29] = experiment: Antibacterial activity against Staphylococcus aureus in presence of 50% plasma; assay type: functional
Staphylococcus aureus [30] = experiment: Antibacterial activity against early exponential growth phase Staphylococcus aureus assessed as reduction in bacterial colony at 8 times of MIC measured at 8 to 24 hrs by time-kill kinetics assay; assay type: functional, organism-based; details: time 8-24 hrs
Staphylococcus aureus [31] = experiment: Drug resistance, ratio of MIC for Staphylococcus aureus measured after 20 days to MIC for Staphylococcus aureus; assay type: functional
Staphylococcus aureus [32] = experiment: Drug resistance, ratio of MIC for Staphylococcus aureus measured after 10 days to MIC for Staphylococcus aureus; assay type: functional

CCCCCCCCNC(=O)c1ccc[n+](CC2=C(C(=O)[O-])N3C(=O)[C@@H](NC(=O)/C(=N\OC)c4csc(N)n4)[C@H]3SC2)c1.O=C(O)C(F)(F)F
Activity (Staphylococcus aureus [1]): Active | PAE (Staphylococcus aureus [2]): 1.58 h | MIC (Staphylococcus aureus [3]): 0.5 µg/mL | Activity (Staphylococcus aureus [4]): Active | Activity (Escherichia coli [5]): Active | CC50 [6]: > 128 µg/mL | HC50 [7]: > 1280 µg/mL | Activity (Staphylococcus aureus [8]): Active | hemolysis at 1280 microg/ml [9]: 2.85% | Activity (Cell membrane [10]): inactive | viability at 48 h, 128 microg/ml [11]: 100% | Activity (Cell membrane [12]): inactive | MIC (Enterococcus faecalis): 4 µg/mL | MIC (Staphylococcus aureus [13]): 2 µg/mL | Activity (Staphylococcus aureus [14]): Active | Activity (Staphylococcus aureus [15]): Active | MIC [16]: 8 µg/mL | viability at 48 h, 128 microg/ml [17]: 92.6% | MIC50 (Staphylococcus aureus [18]): 2 µg/mL | Activity (Staphylococcus aureus [19]): Active | inhibition (INH) (Staphylococcus aureus [20]): ~100% | Ratio (Staphylococcus aureus [21]): <4 | Activity (Cell membrane [22]): inactive | Activity (Staphylococcus aureus [23]): Active | MIC (Escherichia coli [24]): 8 µg/mL | CC50 [25]: > 128 µg/mL | MIC (Staphylococcus aureus [26]): 0.5 µg/mL | PAE (Staphylococcus aureus [27]): 2.08 h | Activity (Cell membrane [28]): inactive | MIC (Staphylococcus aureus [29]): 1 µg/mL

CO/N=C(\C(=O)N[C@@H]1C(=O)N2C(C(=O)[O-])=C(C[n+]3ccccc3)CS[C@H]12)c1csc(N)n1.O=C(O)C(F)(F)F
Activity (Staphylococcus aureus [1]): Active | PAE (Staphylococcus aureus [2]): 1.48 h | MIC (Staphylococcus aureus [3]): 1 µg/mL | Activity (Staphylococcus aureus [4]): Active | Activity (Escherichia coli [5]): Active | CC50 [6]: > 128 µg/mL | HC50 [7]: > 1280 µg/mL | Activity (Staphylococcus aureus [8]): inactive | Activity (Cell membrane [12]): inactive | MIC (Enterococcus faecalis): 4 µg/mL | MIC (Staphylococcus aureus [13]): 2 µg/mL | Activity (Staphylococcus aureus [14]): inactive | Activity (Staphylococcus aureus [15]): inactive | MIC [16]: 0.063 µg/mL | Activity (Staphylococcus aureus [30]): Active | MIC50 (Staphylococcus aureus [18]): 2 µg/mL | Activity (Staphylococcus aureus [19]): inactive | inhibition (INH) (Staphylococcus aureus [20]): ~100% | Activity (Staphylococcus aureus [23]): inactive | MIC (Escherichia coli [24]): 0.063 µg/mL | CC50 [25]: > 128 µg/mL | Ratio (Staphylococcus aureus [31]): 32 | Ratio (Staphylococcus aureus [32]): 8 | PAE (Staphylococcus aureus [27]): 2.1 h | Activity (Cell membrane [28]): inactive
